Data taken from patent US20260069722A1, “COMPOSITION FOR FLUORESCENT LABELING, FLUORESCENT PROBE, INJECTION AGENT, SYRINGE FILLING, MEDICAL APPARATUS, MEDICAL FIBER MATERIAL, METHOD FOR PRODUCING COMPOSITION FOR FLUORESCENT LABELING, AND METHOD FOR PRODUCING MEDICAL FIBER MATERIAL” (VITA CORPORATION, priority 2022, published 2026).

Assay: mixing and kneading of ICG pigment with resin, compression molding
Type: physicochemical
Conditions: pigment (ICG in glycerol) 1 to 7 phr kneaded with PP, PVC, LDPE, EVA, TPU at 140 to 170 degrees Celsius
Method: Pigment (ICG plus solvent) was mixed and kneaded with various types of resin, and then it was verified whether or not a sheet could be manufactured by compression molding.
As the various types of resin, five types were prepared, which include polypropylene (PP), polyvinyl chloride (PVC), low-density polyethylene (LDPE), ethylene-vinyl acetate copolymer resin (EVA), and thermoplastic polyurethane (TPU). As the pigment, viscous liquid was used in which […] 25 mg of ICG were mixed and dissolved with 10 ml of glycerol.
In addition, four patterns, i.e., 1 phr, 3 phr, 5 phr, and 7 phr of the above pigment were prepared. Note that phr is abbreviation of per hundred resin, which is a unit expressing a ratio of pigment mixed in resin whose weight is 100. For instance, if A g of pigment is in 100 g of resin, the pigment ratio can be said to be A (phr).
The resin was charged into a mixer that had been preheated, and was kneaded until it was plasticized. As the above mixer, Laboplast mill 4 M150 manufactured by Toyo Seiki Seisaku-sho, Ltd. was used. Note that “Laboplast mill” is a registered trademark of Toyo Seiki Seisaku-sho, Ltd. This step was performed for each resin prepared in advance. Mixing and kneading was performed for five minutes at temperature set for each resin. […]

CC1(C)C(/C=C/C=C/C=C/C=C2\N(CCCCS(=O)(=O)[O-])c3ccc4ccccc4c3C2(C)C)=[N+](CCCCS(=O)(=O)[O-])c2ccc3ccccc3c21.[Na+] [ICG, indocyanine green]
thermal degradation due to mixing and kneading: thermal degradation of ICG due to mixing and kneading can be suppressed
